Data set [1] can be described thus: Kinetics of MMF-release during incubation in intestinal fluid of the minipig. The conditions noted are these: for release of the second equivalent of MMF / release kinetics of the first equivalent of MMF: diluted minipig small intestinal fluid pH 6.8, 37° C., compared with DMF (FIG. 1); for release kinetics of the first equivalent of MMF: time 0-30 min. Type of data set: in vitro ADME, Göttingen SPF minipig. The procedure: Example 7: Investigation and Comparison of the Kinetics of MMF-Release of the Different Compounds of the Present Invention and DMF During Incubation in Intestinal Fluid of the Minipig
Intestinal tissue/fluid and enterocyte samples were taken from a 10 month old, female Göttingen SPF minipig. The body weight was 21 kg. The minipig was fasted for approximately 28 hours before sampling of intestinal fluid/tissues and enterocytes. On the day of sampling, the minipig was weighed and anaesthetised by an intramuscular injection in the neck or in the left hind leg (about 0.3 ml per kg body weight) of a mixture of Zoletil 50 Vet., Virbac, France (125 mg tiletamine and 125 mg zolazepam), Rompun Vet., Bayer, Germany (20 mg xylazine/ml, 6.5 ml), Ketaminol Vet., Veterinaria AG, Switzerland (100 mg ketamine/ml, 1.5 ml) and Methadon DAK, Nycomed Danmark, Denmark (10 mg methadon/ml, 2.5 ml). The animal was killed by exsanguination before sampling of intestinal fluid. An intestinal segment was ligated at both ends before removal. The isolated tissue was placed in isotonic saline and opened by a longitudinal cut for sampling of intestinal fluid.
The intestinal tissue from each segment was transferred into a Centrifuge Tube, immersed in 10 ml 50 mM phosphate buffer, pH 6.8 and frozen at −70° C.
• Instrument: Acquity UPLC system coupled with a TQ detector (triple quadruple mass spectrometer) UPLC Method: Column: Phenomenex Kinetex C18, 100 A, 2.6 μm (150×4.6 mm) flow: 0.4 ml/min split: appr. 100 μl/min to MS Temperature: 30° C. solvent system (isocratic): • Solvent A 25% water with 0.1% acetic acid • Solvent B 75% methanol with 0.1% acetic acid stoptime: 6 min autosampler temperature: 8° C. injection volume: 4 μl retention time: MN/IF: 4.3 min • MEF: 4.7 min Mass Spectrometry software: Masslynx 4.1 detection mode: electrospray/negative ions (ESP−) capillary voltage: 2.3 kV source temperature: 100° C. desolvation temperature: 450° C. cone voltage: 18 V desolvation gas: N2 650 L/h cone gas: N2, 20 L/h collision gas: argon, appr. 3.3*10^−3 mbar collision energy: 11 eV MRM [m/z]: 128.94>85.03 Monomethylfumarate dwell: 200 msec • 142.99>99.06 Monoethylfumarate (ISTD) dwell: 200 msec 7.2.1.2 Stock and Calibration Solutions
Stock (SS), working (WS) and calibration solutions of the analyte monomethyl fumarate (MMF) and the internal standard (ISTD) […] (MEF) were prepared as described below. • SSMMF: In a 10 ml volumetric flask, 6.5 mg MMF (Batch: MKRJ0642V/Aldrich) were dissolved in methanol and made up to volume (c=650 μg/ml) • SSISTD: In a 100 ml volumetric flask, 10 mg MEF (Batch: STBC5219V/Aldrich) were dissolved in methanol and made up to volume (c=100 μg/ml) • WSISTD: 100 μl SSISTD were transferred into a 10 ml volumetric flask and made up to volume with acetonitrile (c=1,000 ng/ml);
Calibration solutions were prepared by serial dilution of SSMMF; diluted small intestinal fluid (diluted by 1/20 v/v with 50 mM KH2PO4, pH 6.8; (dil IF) was used as matrix. The dilution scheme is given below:
50 μl sample (calibration solution or sample of an incubation experiment with MMF prodrugs) was mixed with 50 μl WSISTD, 20 μl formic acid and 100 μl acetonitrile. This mixture was vortexed for 15 sec and centrifuged (13,000 rpm, 3 min). Thereafter, 4 μl of the supernatant were subjected to LC-MS analysis.
Stock solutions were prepared in DMSO or, for one compound, in DMSO with 10% (v/v) water. Concentrations in stock solutions were […] for compounds with one, two and three molar MMF equivalents.
In a HPLC glass vial, 8 μl of stock solution were mixed with 792 μl dil IF and the mixture was stirred (250 rpm) in a water bath (T=37° C.).
Immediately after mixing as well as at t=15 min, 30 min, 60 min, 90 min and 120 min, 50 μl were withdrawn and prepared for LC-MS analysis as described in chapter. 2.1.3. […]

For a further data set, the system named is Caco-2 monolayers. As to the kind of experiment: in vitro. The method, then: (§1) The membrane permeability was investigated in Caco-2 monolayers. DMF was investigated in a separate experiment for comparison.
(§2) Based on the assumption that in vivo, the intact molecules will be pre-systemically metabolized, the permeability test was performed only in the apical→basolateral direction. The test concentration in the apical medium was 250 μM. […] Sampling time points were 15, 45 and 90 min.

The nature of the next data set: in vitro. The conditions noted are these: human, Caco-2. The procedure:
as §1, §2

The subject of data set [2] is MOG35-55-induced experimental autoimmune encephalomyelitis (EAE). As to the kind of experiment: MOG35-55-induced experimental autoimmune encephalomyelitis (EAE) in C57BL/6 mice. Type of data set: in vivo. To be noted: for body weight: prophylactic oral treatment from day 1, observation day 1-13 (FIG. 2); for development of clinical symptoms (clinical score): prophylactic oral treatment from day 1, observation day 1-13, 11.54 mM dose formulation, 10 ml/kg (FIG. 3). The text has this: Assessment and comparison of the efficacy of compounds of the invention and DMF (reference) in MOG35-55-induced experimental autoimmune encephalomyelitis (EAE) in C57BL/6 mice: • Test system: male C57BL/6 mice, 12 weeks old; 10 animals per treatment group; • Induction of EAE: Day −1—subcutaneous injection of MOG35-55, suspended in complete Freund's adjuvans and intraperitoneal injection of pertussis toxin. • Day 3—intraperitoneal injection of pertussis toxin. • Treatment: Dimethylfumarate and test substances or vehicle only were administered via oral route. Test substances were dissolved or suspended in 0.5% hydroxyethylcellulose (dissolved in 50 mM potassium dihydrogenphosphate, pH 5.0). Drug concentration in dose formulations: 11.54 mM; • Dose volume: 10 ml/kg body weight; • Start of treatment: Day 1 • Observations (clinical Observations were recorded daily between day 1 and 13. score and body weight): • Clinical score: grade 0-10; 0 (=no impairments), 1 (normal movement; limp tail: proximal ⅔ of the tail is limp and droopy), 2 (normal movement; whole tail is limp; 3 (wobbly walk; absent righting reflex), 4 (gait ataxia), 5 (mild paraparesis), 6 (moderate paraparesis), 7 (severe paraparesis or paraplegia), 8 (tetraparesis), 9 (moribund), 10 (death).

Data set [3] can be described thus: In vivo pharmacokinetics of MMF after oral administration in NMRI mice. To be noted: female, mouse, 65.3 mg/kg. The method, then:
The pharmacokinetics of MMF after administration of the compound of Example 1 and DMF for comparison was investigated in female NMRI mice (3 animals per group). The test compound was dissolved in DMSO/PEG300 (20/80) and administered p.o. (gavage) at a dose volume of 10 ml/kg. DMF was given at a dose of 45 mg/kg. The test compound was dosed at a MMF-equivalent dose, i.e. 65.3 mg/kg. Blood samples were taken at 0.25, 0.5, 1.0, 2.0, 4.0, 6.0 and 8.0 h after drug administration.
Pharmacokinetic parameters, derived by non-compartmental analysis for test compound (Example 1): […]

Where “and” joins values, the source holds several entries; their conditions need not be identical. Equal entries are not always repeated. Structures can show the parent of a compound that is named as a salt.

For orientation: Papp A→B means the apparent permeability from the apical to the basolateral side of a cell layer. A low value points to slow passage. By AUC(0-inf) is commonly meant the area under the concentration-time curve extrapolated to infinity. High values mean more exposure, low ones less exposure.

Consider `COC(=O)/C=C/C(=O)OC(C)OC(=O)/C=C/C(=O)OC` [(E)-But-2-enedioic acid 1-((E)-3-methoxycarbonyl-acryloyloxy)-ethyl ester methyl ester, reference compound], for which the “release kinetics of MMF” value in data set [1] (incubation in intestinal fluid of the minipig, compared with DMF (FIG. 8)) is listed as “considerable faster than that of DMF”.

For `COC(=O)/C=C/C(=O)OCCOCCOCCOCCOC(=O)/C=C/C(=O)OC` [Example 1, (E)-But-2-enedioic acid 2-(2-{2-[2-((E)-3-methoxycarbonyl-acryloyl-oxy)-ethoxy]-ethoxy}-ethoxy)-ethyl ester methyl ester], in data set [1], the “release of the second equivalent of MMF” value was “released more slowly” and the “release kinetics of the first equivalent of MMF” value was “essentially identical to that of DMF”. For the same compound, in the data set with Caco-2 monolayers (Caco-2), the “permeability category compared to the reference molecules” value is “moderate permeability”. In the data set “in vitro”, this compound returned an apparent permeability from apical to basolateral (Papp A→B) at 250 μM of 1 ± 0.1 ×10⁻⁶ cm/s and a recovery at 90 min, 250 µM of 17.1%. In data set [2], the body weight entry is on record as “remained stable” and the “development of clinical symptoms (clinical score)” value was “protected from the development of clinical symptoms”. In data set [3], this compound came in with an AUC(0-inf) of 5990 ng·h/mL.

With `COC(=O)/C=C/C(=O)OC` [DMF, Dimethyl fumarate], in the data set on Caco-2 monolayers (Caco-2), the “Recovery [%] mean ± s.d.” value was found to be 11.6 ± 1.0% and the “permeability category compared to the reference molecules” value is reported as “moderate permeability”. Besides, in the data set on Caco-2 monolayers (human, Caco-2, 250 μM), the “Papp × 10^−6 [cm/sec] mean ± s.d.” value was 1.8 ± 0.2 10^−6 cm/sec. Further, in data set [2], the body weight entry is reported as “remained stable” and the “development of clinical symptoms (clinical score)” value was “protected from the development of clinical symptoms”.

Turning to `COC(=O)/C=C/C(=O)OCCOCCOC(=O)/C=C/C(=O)OC` [Example 3, (E)-But-2-enedioic acid 2-[2-((E)-3-methoxycarbonyl-acryloyloxy)-ethoxy]-ethyl ester methyl ester], in data set [1], the “release of the second equivalent of MMF” value was “released more slowly” and the “release kinetics of the first equivalent of MMF” value was “essentially identical to that of DMF”.

Turning to `C[C@]12CC[C@H]3[C@@H](CCC4=CC(=O)CC[C@@]43C)[C@@H]1CC[C@@H]2O` [Testosterone, testosterone], the “Recovery [%] mean ± s.d.” value with Caco-2 monolayers (direction a-b) was 67.3 ± 1.2% and 62.5 ± 2.1%; with Caco-2 monolayers (direction b-a) it was 94.9 ± 0.9% and 76.1 ± 4.5%.

As for `COC(=O)/C=C/C(=O)OCCOCCOCCOC(=O)/C=C/C(=O)OC` [Example 2, (E)-But-2-enedioic acid 2-{2-[2-((E)-3-methoxycarbonyl-acryloyl-oxy)-ethoxy]-ethoxy}-ethyl ester methyl ester], in data set [1], the “release of the second equivalent of MMF” value is reported as “released more slowly” and the “release kinetics of the first equivalent of MMF” value is listed as “essentially identical to that of DMF”.

The record behind these values is patent US9969674B2, “MMF-derivatives of ethyleneglycols” (RATIOPHARM GMBH, priority 2014, dated 2018).
